Results published in patent publication US20210317092A1 (BAYER PHARMA AKTIENGESELLSCHAFT, priority 2016, published 2021).

How the values were obtained:
Type in all cases: cell-based
IL-6 secretion = assay: Inhibitory activity on Bradykinin B1 agonist-induced secretion of IL-6 in human IMR-90 cells; conditions: 30 min compound, stimulated with 0.1 μM Lys-[Des-Arg9]Bradykinin and 0.1 μM Sar-[D-Phe8]-des-Arg9-Bradykinin for 5 hours
From the text: (§1) Inhibitory activity on Bradykinin B1 agonist-induced secretion of IL-6 and IL-8 in human IMR-90 cells
(§2) The effect of the compound examples on secretion of the cytokine IL-6 and IL-8 has been investigated in the human foetal lung fibroblast IMR-90 cell line. Here the induction of the cytokine secretion was induced by the Bradykinin B1 agonists Lys-[Des-Arg9]Bradykinin (CAS 71800-36-7, Tocris Bioscience) and Sar-[D-Phe8]-des-Arg9-Bradykinin (CAS 126959-88-4, Tocris Bioscience) leading to the activation of the Bradykinin B1-driven signalling pathway. This effect is indicative for a strong anti-inflammatory mode of action in kinin driven inflammation.
(§3) IMR-90 cells were cultured in Eagle's Minimum Essential Medium (EMEM) containing 2 mM L-glutamine, 1 g/L glucose, 1.5 g/L NaHCO3, 1 mM sodium pyruvate and non-essential amino acids (ATCC, 30-2003™) supplemented with 10% FBS (Biochrom, S0615) and 50 U/mL Penicillin, 50 μg/mL Streptomycin (PAA, P11-010). The assay was performed in EMEM and a cell density of […] IMR-90 cells/96-well. The compound examples have been serial diluted in 100% DMSO and evaluated at 8 different concentrations within the range of 3 nM and 10 μM and a final DMSO concentration of 0.4%. The IMR-90 cells have been incubated with the respective concentration of the compound for 30 min. The enhanced secretion of IL-6 and IL-8 was induced by the stimulation of these cells with 0.1 μM Lys-[Des-Arg9]Bradykinin (Tocris, catalogue no. 3225) and 0.1 μM Sar-[D-Phe8]-des-Arg9-Bradykinin (Tocris, catalogue no. 3230) for 5 hours at 37° C. and 5% C02. Further, cells have been treated with Lys-[Des-Arg9]Bradykinin and Sar-[D-Phe8]-des-Arg9-Bradykinin as neutral control and with 0.1% DMSO as inhibitor control. The amount of IL-6 and IL-8 in the supernatant was determined using the Human Prolnflammatory Panel II (4-Plex) (MSD, K15025B) according to manufacturer's instruction. Briefly, supernatants were added onto assay plates and incubated at room temperature for 1-2 h with vigorous shaking at 600 rpm. Detection antibodies were then added onto the supernatants and incubated at room temperature for an additional 1-2 h with vigorous shaking at 600 rpm. Plates were washed three times with phosphate-buffered saline (PBS; 137 mM NaCl, 2.7 mM KCl, 6.5 mM Na2HPO4, 1.7 mM KH2P04) containing 0.05% Tween-20 (Bio-Rad, 161-0781) and electrochemiluminescence detected using the MSD Sector Imager 6000 plate reader. The cell viability was measured using the CellTiter-Glo Luminescent Assay (Promega, G7571) following the manufacturers protocol. Briefly, the CellTiter-Glo Reagent was diluted with PBS (1:1) and added directly to cells. After incubation and shaking for 10 minutes luminescent signal was measured which is proportional to the amount of ATP present.
(§4) The effect of the compound on the amount of secreted cytokine has been calculated as 100/(measured cytokine concentration of neutral control-measured cytokine concentration of inhibitor control)*(measured cytokine concentration of compound dose-measured cytokine concentration of inhibitor control). IC50 values are determined using 4-parameter-fit.
(§5) The compound examples were tested in triplicates per plate and the inhibitory activity was determined as the relation between neutral and inhibitor control in percent. IC50 values were calculated using the 4-parameter logistic model.

IL-8 secretion = assay: Inhibitory activity on Bradykinin B1 agonist-induced secretion of IL-8 in human IMR-90 cells; conditions: 30 min compound, stimulated with 0.1 μM Lys-[Des-Arg9]Bradykinin and 0.1 μM Sar-[D-Phe8]-des-Arg9-Bradykinin for 5 hours
From the text: as §1, §2, §3, §4, §5

[1] = target: T1, native human Bradykinin B1 receptor (Homo sapiens, UniProt P46663); assay: Calcium flux Assay (FLIPR) with human fibroblasts expressing Bradykinin B1 receptor (hB1 IMR-90); conditions: IMR-90 human fibroblasts expressing native Bradykinin B1 receptor
T1 construct: which express native human Bradykinin B1 receptor after induction with human IL-10; Coriell Institute; host or cells: IMR-90 human foetal lung fibroblasts, cytokine-induced
T1 sequence (P46663 1-353): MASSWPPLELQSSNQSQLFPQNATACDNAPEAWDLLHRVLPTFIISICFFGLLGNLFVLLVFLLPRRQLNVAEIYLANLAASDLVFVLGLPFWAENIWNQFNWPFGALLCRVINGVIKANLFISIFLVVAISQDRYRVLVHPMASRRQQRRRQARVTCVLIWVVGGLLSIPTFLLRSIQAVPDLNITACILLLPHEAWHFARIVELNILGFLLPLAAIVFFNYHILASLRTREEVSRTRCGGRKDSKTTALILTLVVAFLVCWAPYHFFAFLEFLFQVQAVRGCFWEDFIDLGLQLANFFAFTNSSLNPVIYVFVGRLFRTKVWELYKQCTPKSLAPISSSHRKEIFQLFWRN
Procedure, shortened: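 IMR-90 human foetal lung fibroblasts induced with 0.35 ng/mL […] for 3 h, Fluo-4/AM-loaded, preincubated with compound (8 concentrations, triplicate) for 30 min at 28 °C, then challenged with Lys-(Des-Arg)-bradykinin at EC90. Ca2+ fluorescence was read at 538 nm; full inhibition set by 20 µM Lys-(Des-Arg-Leu)-bradykinin; IC50 derived.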

| IC50 (IL-6 secretion) [nM] | IC50 (IL-8 secretion) [nM] | IC50 [1] [nM] | SMILES |
| --- | --- | --- | --- |
| 225 | 60 | 14.2 | COc1ccc(-c2ccc(NC(=O)C3(c4cccc(Cl)c4)CC3)cc2-c2nnn[nH]2)cc1OC [Example 1, 1-(3-Chlorophenyl)-N-[3′,4′-dimethoxy-2-(1H-tetrazol-5-yl)biphenyl-4-yl]cyclopropanecarboxamide] |
| 57 | 75 | 14.9 | CCOc1ccc(-c2ccc(NC(=O)C3(c4cccc(Cl)c4)CC3)cc2-c2nnn[nH]2)cn1 [Example 253, 1-(3-Chlorophenyl)-N-[4-(6-ethoxypyridin-3-yl)-3-(1H-tetrazol-5-yl)phenyl]cyclopropanecarboxamide] |
